From PubChem BioAssay (NCI) come the findings set out here.

Test systems include 786-0 renal; HS 578T breast; HT29 colon; MALME-3M melanoma; SK-OV-3 ovarian; SN12C renal; SNB-19 CNS; SR leukemia; T-47D breast; TK-10 renal.
Assay in all cases: NCI tumour cell line growth inhibition, 48 h

Each structure is given as a SMILES string. Values joined by “and” are separate entries in the source; they are usually repeats but may differ in a detail not shown here. Identical values can stand only once.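 Results reflect a 48-hour exposure of cells in 96-well plates to compound at five concentrations. At the GI50, growth is halved. TGI: concentration producing complete growth inhibition.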

Turning to `O=c1c(O)c(-c2ccc(O)c(O)c2)oc2cc(O)cc(O)c12`, the GI50 with 786-0 renal was 21.9 µM; in the experiment on HS 578T breast it was 4.12 µM; with HT29 colon it was 37.3 µM; with MALME-3M melanoma, 62 µM; in the experiment on SK-OV-3 ovarian, 18.3 µM; in the experiment on SN12C renal, 10.5 µM. Also, the GI50 is 13.1 µM in the experiment on SNB-19 CNS, 3.57 µM with SR leukemia, 23.8 µM with T-47D breast and 49.4 µM in the experiment on TK-10 renal. The TGI was > 100 µM in the experiment with 786-0 renal; > 50.7 µM in the experiment on HS 578T breast; > 100 µM in the experiment with HT29 colon; > 100 µM with MALME-3M melanoma; 68.5 µM and > 100 µM in the experiment with SK-OV-3 ovarian; > 100 µM with SN12C renal. Moreover, the TGI with SNB-19 CNS, with SR leukemia, with T-47D breast and in the experiment with TK-10 renal was > 100 µM in each case.
As for `COC(=N)c1c(N)[n+]([O-])c2ccc(F)cc2[n+]1[O-]`, the GI50 is > 100 µM in the experiment on 786-0 renal; > 100 µM with HS 578T breast; > 100 µM in the experiment with HT29 colon; 66.3 µM with MALME-3M melanoma; > 100 µM in the experiment with SK-OV-3 ovarian; > 100 µM in the experiment on SN12C renal. Moreover, the GI50 in the experiment on SNB-19 CNS is > 100 µM; with SR leukemia, 47.9 µM; with T-47D breast, > 100 µM; with TK-10 renal it was > 100 µM. Further, the TGI in the experiment on 786-0 renal, in the experiment on HS 578T breast, with HT29 colon, in the experiment with MALME-3M melanoma, in the experiment on SK-OV-3 ovarian and in the experiment on SN12C renal was > 100 µM in each case. Besides, the TGI with SNB-19 CNS, in the experiment with SR leukemia, in the experiment with T-47D breast and with TK-10 renal was > 100 µM each time.
As to `CN1CCc2[nH]nc(-c3n[nH]c4c3CN(C)CC4)c2C1`, the TGI in the experiment on 786-0 renal, in the experiment with HS 578T breast, with HT29 colon, in the experiment on MALME-3M melanoma, in the experiment on SK-OV-3 ovarian and in the experiment on SN12C renal was > 100 µM throughout. Also, the TGI in the experiment with SNB-19 CNS, in the experiment with SR leukemia, in the experiment with T-47D breast and in the experiment with TK-10 renal was > 100 µM in each case.
With `Nc1c(C(=O)c2cccc(-c3cccnc3)c2)cnn1-c1ccc(F)cc1F`, the GI50 in the experiment on 786-0 renal is 18.1 µM; in the experiment on HS 578T breast, 7.44 µM; with HT29 colon it was 1.05 µM; in the experiment on MALME-3M melanoma, 2.26 µM; with SK-OV-3 ovarian it was 7.21 µM; in the experiment on SN12C renal, 7.53 µM. The GI50 was 11.7 µM in the experiment with SNB-19 CNS, 0.823 µM in the experiment on SR leukemia, 1.57 µM with T-47D breast and 6.43 µM in the experiment with TK-10 renal. The TGI in the experiment on 786-0 renal is > 25 µM; with HS 578T breast, > 25 µM; in the experiment on HT29 colon, > 25 µM; in the experiment on MALME-3M melanoma it was > 20.9 µM; in the experiment on SK-OV-3 ovarian it was > 25 µM; in the experiment on SN12C renal, > 25 µM. The TGI in the experiment on SNB-19 CNS was > 25 µM; with SR leukemia, > 6.83 µM; with T-47D breast it was > 25 µM; with TK-10 renal, > 25 µM.
As to `COc1ccc(N(/C=C/C(=O)C(F)(F)F)CC(=O)c2ccc(F)cc2)cc1`, the GI50 in the experiment with 786-0 renal was 21.1 µM; in the experiment with HS 578T breast it was 27.8 µM; in the experiment with HT29 colon it was 46.2 µM; in the experiment with MALME-3M melanoma it was 16.5 µM; with SK-OV-3 ovarian, 42.9 µM; in the experiment with SN12C renal, 14.7 µM. Also, the GI50 with SNB-19 CNS is 36.6 µM; in the experiment with SR leukemia, 19.1 µM; in the experiment on T-47D breast it was 32.1 µM; in the experiment with TK-10 renal, 42.1 µM. Also, the TGI with 786-0 renal is 52.4 µM; in the experiment on HS 578T breast it was 89.1 µM; in the experiment on HT29 colon, > 100 µM; in the experiment on MALME-3M melanoma, 41.4 µM; in the experiment on SK-OV-3 ovarian it was > 100 µM; in the experiment on SN12C renal it was 33.8 µM. The TGI in the experiment on SNB-19 CNS is > 100 µM; in the experiment with SR leukemia, 44.3 µM; in the experiment on T-47D breast, > 100 µM; with TK-10 renal it was 96.4 µM.
As to `Cc1cn2c(/C=C3/C(=O)Nc4ccc(O)cc43)c(C)nc2s1`, the GI50 in the experiment on 786-0 renal is 4.95 µM; in the experiment on HS 578T breast, 2.68 µM; in the experiment with HT29 colon, 2.47 µM; in the experiment on MALME-3M melanoma, 0.946 µM; in the experiment on SK-OV-3 ovarian, 3.8 µM; in the experiment with SN12C renal it was 3.79 µM. Further, the GI50 in the experiment on SNB-19 CNS is 5.47 µM; in the experiment on SR leukemia it was 0.316 µM; in the experiment with T-47D breast, 2.64 µM; in the experiment with TK-10 renal, 2.43 µM. For the same molecule, the TGI in the experiment with 786-0 renal is > 100 µM; in the experiment on HS 578T breast, 18.2 µM; in the experiment with HT29 colon, > 100 µM; in the experiment on MALME-3M melanoma, 19.5 µM; in the experiment with SK-OV-3 ovarian, > 28.8 µM; with SN12C renal, 41.4 µM. Besides, the TGI was > 100 µM in the experiment with SNB-19 CNS, 13.6 µM in the experiment on SR leukemia, 25.5 µM in the experiment with T-47D breast and 26 µM with TK-10 renal.
On to `N#CSCc1ccc(Cl)c(CSC#N)c1`, for which the GI50 is 0.301 µM in the experiment on 786-0 renal; 3.16 µM with HS 578T breast; 0.0423 µM with HT29 colon; 9.8 µM in the experiment on MALME-3M melanoma; 20 µM with SK-OV-3 ovarian; 0.482 µM with SN12C renal. For the same molecule, the GI50 in the experiment on SNB-19 CNS was 10.5 µM; in the experiment on SR leukemia, 0.0642 µM; with T-47D breast, 15.7 µM; with TK-10 renal, 14.5 µM. Also, the TGI is 17.4 µM with 786-0 renal; 97.9 µM in the experiment with HS 578T breast; > 37.6 µM with HT29 colon; 37.8 µM with MALME-3M melanoma; > 100 µM with SK-OV-3 ovarian; 40.7 µM in the experiment with SN12C renal. Also, the TGI in the experiment with SNB-19 CNS was > 100 µM; with SR leukemia, 19.2 µM; in the experiment on T-47D breast, 51.8 µM; in the experiment with TK-10 renal, 46.6 µM.
`Nc1c(C(=O)c2cccc(C#CCO)c2)cnn1-c1ccc(F)cc1`: the GI50 in the experiment with 786-0 renal is > 25 µM; in the experiment on HS 578T breast, 5.18 µM; in the experiment on HT29 colon it was > 25 µM; in the experiment on MALME-3M melanoma it was > 25 µM; in the experiment with SK-OV-3 ovarian, > 25 µM; in the experiment with SN12C renal, > 25 µM. Besides, the GI50 in the experiment on SNB-19 CNS, in the experiment on SR leukemia, in the experiment with T-47D breast and in the experiment with TK-10 renal was > 25 µM in each case. The TGI with 786-0 renal, in the experiment on HS 578T breast, with HT29 colon, in the experiment with MALME-3M melanoma, in the experiment with SK-OV-3 ovarian and in the experiment with SN12C renal was > 25 µM throughout. The TGI with SNB-19 CNS, in the experiment on SR leukemia, with T-47D breast and in the experiment on TK-10 renal was > 25 µM each time.
